In ChEMBL document CHEMBL1123274, “Azasteroids: structure-activity relationships for inhibition of 5 alpha-reductase and of androgen receptor binding” (J Med Chem, 1986) one finds IC50 data, which are given here for 35 compounds.

Assay [1] has as its target T1, Steroid 5-alpha-reductase (Rattus norvegicus, UniProt P24008+P31214).
T1 sequence (P24008 whole entry): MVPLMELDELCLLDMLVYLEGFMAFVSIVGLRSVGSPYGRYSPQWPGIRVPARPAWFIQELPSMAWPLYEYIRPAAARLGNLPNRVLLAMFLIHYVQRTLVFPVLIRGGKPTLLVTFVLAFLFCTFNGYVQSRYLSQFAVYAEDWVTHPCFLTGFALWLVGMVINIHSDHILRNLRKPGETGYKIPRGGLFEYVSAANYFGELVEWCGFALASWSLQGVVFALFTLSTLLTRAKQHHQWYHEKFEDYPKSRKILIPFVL
T1 sequence (P31214 whole entry): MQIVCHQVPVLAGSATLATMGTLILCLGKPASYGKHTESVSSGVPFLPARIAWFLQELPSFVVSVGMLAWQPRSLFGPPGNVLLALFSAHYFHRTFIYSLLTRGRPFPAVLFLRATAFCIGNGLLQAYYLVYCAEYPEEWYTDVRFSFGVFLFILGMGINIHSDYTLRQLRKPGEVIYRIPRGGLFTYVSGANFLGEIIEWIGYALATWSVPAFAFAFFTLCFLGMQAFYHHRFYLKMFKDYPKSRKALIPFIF
Briefly: Inhibition of Steroid 5-alpha-reductase from rat prostate. Type of assay: tissue-based, Prostate gland.

For assay [2], the target named is T2, Androgen receptor (Rattus norvegicus, UniProt P15207).
T2 sequence (P15207 whole entry): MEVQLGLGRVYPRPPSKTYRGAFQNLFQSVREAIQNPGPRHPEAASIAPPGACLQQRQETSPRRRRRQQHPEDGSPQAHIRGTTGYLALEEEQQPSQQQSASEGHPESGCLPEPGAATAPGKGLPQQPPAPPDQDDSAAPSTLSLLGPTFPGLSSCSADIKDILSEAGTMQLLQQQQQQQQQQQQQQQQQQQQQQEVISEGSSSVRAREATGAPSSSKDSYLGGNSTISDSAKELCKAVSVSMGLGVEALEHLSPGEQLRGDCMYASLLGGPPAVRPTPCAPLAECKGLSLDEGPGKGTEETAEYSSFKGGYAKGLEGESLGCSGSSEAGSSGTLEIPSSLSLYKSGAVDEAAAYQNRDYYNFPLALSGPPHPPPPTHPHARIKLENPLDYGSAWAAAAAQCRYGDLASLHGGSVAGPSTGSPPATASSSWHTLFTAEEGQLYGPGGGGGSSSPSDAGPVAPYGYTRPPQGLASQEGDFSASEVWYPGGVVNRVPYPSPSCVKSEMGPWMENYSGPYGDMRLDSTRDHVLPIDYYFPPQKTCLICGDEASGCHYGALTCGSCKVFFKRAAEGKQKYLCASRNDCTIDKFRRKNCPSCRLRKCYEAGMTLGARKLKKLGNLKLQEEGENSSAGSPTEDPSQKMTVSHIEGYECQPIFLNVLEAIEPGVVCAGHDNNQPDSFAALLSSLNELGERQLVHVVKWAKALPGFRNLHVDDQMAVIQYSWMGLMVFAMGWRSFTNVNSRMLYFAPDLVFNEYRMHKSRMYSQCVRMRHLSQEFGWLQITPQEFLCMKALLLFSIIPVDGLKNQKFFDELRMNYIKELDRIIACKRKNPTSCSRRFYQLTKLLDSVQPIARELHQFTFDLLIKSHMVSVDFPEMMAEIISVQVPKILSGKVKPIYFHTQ
The assay can be described thus: In vitro antagonist activity against rat prostatic androgen receptor (AR).

Assay [3] concerns the target T1, Steroid 5-alpha-reductase. The assay can be described thus: In vitro inhibitory activity against rat prostatic steroid 5-alpha-reductase. Type of assay: protein assay.

`CCN(CC)C(=O)[C@H]1CC[C@H]2[C@@H]3CCC4=CC(=O)CC[C@]4(C)[C@H]3CC[C@]12C`: the IC50 was 7.6e-07 M in assay [1] and 340 nM in assay [2]. The matching figures for `COC(=O)[C@H]1CC[C@H]2[C@@H]3CCC4=CC(=O)CC[C@]4(C)[C@H]3CC[C@]12C`: 4.8e-07 M and 140 nM. For `C[C@]12CC[C@H]3[C@@H](CCC4=CC(=O)CC[C@@H]43)[C@@H]1CC[C@@]21CCCO1`, the figures for the IC50 in assay [1] and in assay [2] were 1.5e-06 M and 30 nM, respectively. For `CC(O)[C@H]1CC[C@H]2[C@@H]3CCC4N(C)C(=O)CC[C@]4(C)[C@H]3CC[C@]12C` (stereo partly drawn), the IC50 in assay [1] was 1.9e-08 M; in assay [2] it was 74 nM. For the compound `C[C@]12CC[C@H]3[C@@H](CCC4NC(=O)CC[C@@]43C)[C@@H]1CC[C@@H]2O` (stereo partly drawn), the IC50 in assay [1] came to 2.5e-07 M; in assay [2], 930 nM. For `CC(O)[C@H]1CC[C@H]2[C@@H]3CCC4NC(=O)CC[C@]4(C)[C@H]3CC[C@]12C` (stereo partly drawn) the same measures were 4.5e-08 M and 9300 nM. As to `CN1C(=O)CC[C@@]2(C)C1CC[C@H]1[C@@H]3CC[C@H](O)[C@@]3(C)CC[C@@H]12` (stereo partly drawn), the IC50 in assay [1] amounted to 1.5e-07 M; in assay [2], 19 nM.

Consider `C[C@]12CCC(=O)C[C@@H]1CC[C@@H]1[C@@H]2CC[C@]2(C)[C@@H](O)CC[C@@H]12` [STANOLONE], for which, in assay [1], the IC50 is reported as >> 1e-6 M.

On to `CCN(CC)C(=O)/C=C1\CC[C@H]2[C@@H]3CCC4N(C)C(=O)CC[C@]4(C)[C@H]3CC[C@]12C` (stereo partly drawn), for which the IC50 in assay [2] came out at 930 nM; in assay [3], 2.5 nM. `CC(=O)[C@H]1CC[C@H]2[C@@H]3CCC4NC(=O)CC[C@]4(C)[C@H]3CC[C@]12C` (stereo partly drawn): the values for the IC50 in assay [1] and in assay [2] were 5e-08 M and 68000 nM, respectively. Consider `CN1C(=O)C=C[C@@]2(C)C1CC[C@@H]1[C@@H]2CC[C@@]2(C)[C@H]1CC[C@@]21CCCO1` (stereo partly drawn), for which the IC50 in assay [2] came out at 110 nM; in assay [3], 430 nM. For `CCN1C(=O)CC[C@@]2(C)C1CC[C@@H]1[C@@H]2CC[C@@]2(C)[C@H]1CC[C@@]21CCCO1` (stereo partly drawn) the same measures were 13000 nM and 1170 nM. For `CC(C)N(C(=O)[C@H]1CC[C@H]2[C@@H]3CCC4NC(=O)C=C[C@]4(C)[C@H]3CC[C@]12C)C(C)C` (stereo partly drawn) the same measures were 18000 nM and 79 nM. For the compound `CCN(CC)C(=O)[C@H]1CC[C@H]2[C@@H]3CC[C@H]4N(C)C(=O)C[C@H](C#N)[C@]4(C)[C@H]3CC[C@]12C`, the IC50 was above 10000 nM in assay [2] and above 1000 nM in assay [3]. As to `CC(C)N(C(=O)[C@H]1CC[C@H]2[C@@H]3CC[C@@H]4N(C)C(=O)CC[C@]4(C)[C@H]3CC[C@]12C)C(C)C`, the IC50 is above 10000 nM in assay [2] and 1000 nM in assay [3]. For the compound `CCN(CC)C(=O)[C@H]1CCC[C@H]2[C@@H]3CC[C@H]4N(C)C(=O)NC[C@]4(C)[C@H]3CC[C@]12C`, the IC50 in assay [2] was determined as 1600 nM; in assay [3], 500 nM.

On to `CC(CCC(=O)[O-])[C@H]1CC[C@H]2[C@@H]3CCC4N(C)C(=O)CC[C@]4(C)[C@H]3CC[C@]12C.[Na+]` (stereo partly drawn), for which the IC50 worked out at 21000 nM in assay [2] and 3.6 nM in assay [3]. The matching figures for `COC(=O)C(C)[C@H]1CC[C@H]2[C@@H]3CCC4N(C)C(=O)CC[C@]4(C)[C@H]3CC[C@]12C` (stereo partly drawn): 960 nM and 22 nM. For `CCC(C)C(=O)[C@H]1CC[C@H]2[C@@H]3CCC4N(C)C(=O)CC[C@]4(C)[C@H]3CC[C@]12C` (stereo partly drawn) the same measures were 420 nM and 1.9 nM. For `C[C@]12CCC(=O)NC1CC[C@@H]1[C@@H]2CC[C@@]2(C)[C@H]1CC[C@@]21CCCO1` (stereo partly drawn) the same measures were 2500 nM and 93 nM. With `COC(CNC(=O)[C@H]1CC[C@H]2[C@@H]3CCC4N(C)C(=O)CC[C@]4(C)[C@H]3CC[C@]12C)OC` (stereo partly drawn), the IC50 in assay [2] worked out at 790 nM; in assay [3] it was 4.6 nM. The matching figures for `CC(=O)N[C@@H]1CC[C@H]2[C@@H]3CCC4N(C)C(=O)CC[C@]4(C)[C@H]3CC[C@]12C` (stereo partly drawn): 40000 nM and 58 nM. For `CN1C(=O)CC[C@@]2(C)C1CC[C@@H]1[C@@H]2CC[C@@]2(C)[C@H]1CC[C@@]21CCC(=O)O1` (stereo partly drawn) the same measures were 89 nM and 40 nM. For `CC(CO)[C@H]1CC[C@H]2[C@@H]3CCC4N(C)C(=O)CC[C@]4(C)[C@H]3CC[C@]12C` (stereo partly drawn) the same measures were 860 nM and 3.8 nM. With `CCN(CC)C(=O)[C@H]1CC[C@H]2[C@@H]3CCC4=C(C#N)C(=O)CC[C@]4(C)[C@H]3CC[C@]12C`, the IC50 in assay [1] was 2.9e-08 M; in assay [2], 1300 nM. For `CCN(CC)C(=O)CCC(C)[C@H]1CC[C@H]2[C@@H]3CCC4N(C)C(=O)CC[C@]4(C)[C@H]3CC[C@]12C` (stereo partly drawn), the figures for the IC50 in assay [2] and in assay [3] were 430 nM and 3.4 nM, respectively. The matching figures for `CCN(CC)C(=O)[C@H]1CC[C@H]2[C@@H]3CC[C@H]4N(C)C(=O)[C@H](O)C[C@]4(C)[C@H]3CC[C@]12C`: 3200 nM and 460 nM. Take `CCN(CC)C(=O)[C@H]1CC[C@H]2[C@@H]3CC[C@H]4N(NC=O)C(=O)CC[C@]4(C)[C@H]3CC[C@]12C`: the concentration for half-maximal inhibition (IC50) in assay [2] was above 10000 nM; in assay [3], 400 nM. The matching figures for `CCN(CC)C(=O)[C@H]1CC[C@H]2[C@@H]3CC[C@H]4N(C)/C(=N/O)CC[C@]4(C)[C@H]3CC[C@]12C`: 540 nM and 100 nM.

On to `CCN(CC)C(=O)[C@H]1CC[C@H]2[C@@H]3CCC4N(C)C(=O)C=C(C#N)[C@]4(C)[C@H]3CC[C@]12C` (stereo partly drawn), for which the IC50 in assay [2] was above 10000 nM; in assay [3] it was above 1000 nM.

In assay [1], `C=C1C[C@@H]2[C@H](CC[C@@]3(C)[C@H]2CC[C@]3(OC(C)=O)C(C)=O)[C@@]2(C)CCC(=O)C=C12` displayed an IC50 of 1.6e-07 M.

As for `CC(=O)[C@H]1[C@H](C)C[C@H]2[C@@H]3CCC4N(C)C(=O)CC[C@]4(C)[C@H]3CC[C@@]21C` (stereo partly drawn), the IC50 in assay [2] stood at 290 nM; in assay [3] it was 3.4 nM. For `CCN(CC)C(=O)[C@H]1CC[C@H]2[C@@H]3CC[C@H]4N(C)C(=O)[C@@H](C)C[C@]4(C)[C@H]3CC[C@]12C` the same measures were 6100 nM and 20 nM. In the case of `CC(C)(C)NC(=O)[C@H]1CC[C@H]2[C@@H]3CCC4NC(=O)CC[C@]4(C)[C@H]3CC[C@]12C` (stereo partly drawn), the IC50 in assay [2] was above 100000 nM; in assay [3] it was 6.3 nM. With `CCN(CC)C(=O)[C@H]1CC[C@H]2[C@@H]3CC[C@@H]4NC(=O)CC[C@]4(C)[C@H]3CC[C@]12C` (stereo in doubt; 79), the figures for the IC50 in assay [2] and in assay [3] were above 10000 nM and above 1000 nM, respectively.

For orientation: IC50 means the concentration that inhibits the measured activity by half.
